pEC50, pIC50: −log10 of the molar value.

The test system of test [1] is primary human fibroblasts derived from IPF patients (LL29 cells). Description: Inhibition of the fibrotic process: αSMA staining in TGF-β1 treated LL29 fibroblasts. In kind it is cell-based. The settings on record: Homo sapiens, Fibroblast, 96 h; LL29 cells, TGF-β1 20 ng/mL, 4 days, % αSMA positive cells. In short, it runs like this:
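LL29 fibroblasts from IPF patients, in F12 medium with 1% FBS, treated with TGF-β1 plus compound; TGF-β1 with DMSO as positive control, DMSO alone as negative control. After 4 days' incubation, SYTOX green nucleic acid stain added at 1 μM final, 30 min at room temperature.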

In test [2] the test system is primary human mesenchymal stem cells (hMSCs). Nature of the test: Tenocyte differentiation assay (SCXA-positive cells) in hMSCs. In kind it is cell-based. The note with it: for pEC50: Homo sapiens, Mesenchymal stem cells, 96 h, hMSCs, 4 days, SCXA positive cells; for percent in parentheses under EC50 >100: given for EC50 >100 μM, meaning not defined in this example. Summed up:
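Passage 3–6 hMSCs were compound-treated, fixed in 4% formaldehyde and stained overnight at 4 °C with anti-SCXA antibody; SCXA-positive cells were counted by imaging. Counts were normalized to the mean of 12 DMSO wells as fold change, averaged over 3 replicate wells per concentration, and curve-fitted for EC50.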

Test [3] deals with Wnt activity (Sp5-Luc reporter in SW480 cells). Description: Screening assay for Wnt activity: Sp5-Luc reporter gene assay in SW480 colon carcinoma cells. In kind it is cell-based, human. The settings on record: Homo sapiens, 36 to 48 hours. Summed up:
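SW480 colon carcinoma cells stably carrying a lentiviral luciferase reporter driven by an Sp5 promoter with eight TCF/LEF sites, plated at 4,000 cells/well in DMEM with 1% FBS. Compound exposure for 36–48 h at 37 °C, then luminescence read. Signals normalized to DMSO; EC50 from four-parameter nonlinear fit.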

The next test has as its target GSK3β kinase (Homo sapiens (Human), UniProt P49841). Description: GSK3β kinase assay (Ser/Thr 09 peptide Z-lyte FRET). In kind it is biochemical. The settings on record: read-out: EC50 (method: IC50). In short, it runs like this:
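Non-radioactive Z-lyte FRET read-out, kinase activity expressed as coumarin/fluorescein emission ratio. Compounds incubated with the reaction mixture one hour at room temperature in duplicate, then development buffer added for another hour. IC50 from non-linear regression of dose-response curves.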

The test system of test [4] is SW480 colon carcinoma cells. Nature of the test: Cell viability assay (CellTiter-Glo) in SW480 colon carcinoma cells. In kind it is cell-based, human. The settings on record: Homo sapiens, 96 h, four days. In short, it runs like this: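 SW480 cells stably carrying an Sp5-promoter luciferase reporter were plated at 2,000 cells/well in DMEM with 1% FBS and treated with compound for four days at 37 °C. Viability was read as ATP luminescence with CellTiter-Glo after about 12 min; DMSO-treated wells served as controls.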

A further test relates to IL-6. Description: IL-6 inhibition in LPS-stimulated human peripheral blood mononuclear cells (HTRF). In kind it is cell-based. The note with it: Homo sapiens, PBMC; for pEC50: huPBMCs, LPS 50 ng/mL, 22 hours, IL-6 HTRF; for inhibition at 10 µM: read-out: percent inhibition at 10 μM. In short, it runs like this:
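Fresh human PBMCs at 1×10e6 cells/mL in RPMI/1% FBS were stimulated with 50 ng/mL E. coli 0111:B4 LPS added 2 h after compound, then incubated 22 h at 37° C. Secreted IL-6 was measured by HTRF (665/620 nm ratio) after 3 h at room temperature. EC50 was taken from activity normalized to DMSO-treated cells.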

For the next test, the target named is DYRK1A kinase (Homo sapiens (Human), UniProt Q13627). Nature of the test: DYRK1A kinase assay (Ser/Thr 18 peptide Z-lyte FRET). In kind it is biochemical. The settings on record: read-out: EC50 (method: IC50). In short, it runs like this:
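This Z-lyte FRET assay reads the coumarin/fluorescein emission ratio. Compounds were incubated with the reaction mixture for 1 h at room temperature, followed by development reagent for a further 1 h at room temperature, in duplicate.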

GSK3β kinase, sequence (P49841 whole entry): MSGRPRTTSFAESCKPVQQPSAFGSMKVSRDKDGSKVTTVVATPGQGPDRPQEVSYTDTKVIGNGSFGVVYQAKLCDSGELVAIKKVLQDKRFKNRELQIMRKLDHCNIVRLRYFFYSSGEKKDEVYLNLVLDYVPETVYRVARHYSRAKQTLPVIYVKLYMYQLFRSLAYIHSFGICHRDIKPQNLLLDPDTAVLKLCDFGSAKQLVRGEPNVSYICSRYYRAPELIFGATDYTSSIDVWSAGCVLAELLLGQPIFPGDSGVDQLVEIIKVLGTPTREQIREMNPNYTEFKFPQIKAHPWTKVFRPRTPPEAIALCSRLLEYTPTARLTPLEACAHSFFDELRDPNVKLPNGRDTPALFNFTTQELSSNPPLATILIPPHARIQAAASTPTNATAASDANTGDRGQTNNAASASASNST

With `C[C@H](NC(=O)c1n[nH]c2c(F)cc(-c3cnn(C)c3)cc12)C(F)(F)F` [Compound 135, (S)-7-Fluoro-5-(1-methyl-1H-pyrazol-4-yl)-N-(1,1,1-trifluoropropan-2-yl)-1H-indazole-3-carboxamide], the pEC50 in test [1] is less than 5.00; in test [2], less than 4.00; in test [3], less than 5.00; in test [4] it was less than 5.00; with IL-6, less than 5.00. The “percent in parentheses under EC50 >100” value in test [2] is “(16.1%)”. The results for the pIC50 at GSK3β kinase and on DYRK1A kinase were 7.37 and 6.36, respectively. The inhibition at 10 µM in the test on IL-6 stood at 50.6%.

Turning to `Cn1cc(-c2ccc3[nH]nc(C(=O)NC45CC6CC(CC(C6)C4)C5)c3c2)cn1` [Compound 137, N-((3s,5s,7s)-Adamantan-1-yl)-5-(1-methyl-1H-pyrazol-4-yl)-1H-indazole-3-carboxamide], the pEC50 in test [1] is 5.68; in test [2], 5.61; in test [3], 5.37; in test [4], 5.28; with IL-6, less than 5.00. Moreover, the pIC50 on GSK3β kinase was 5.87; on DYRK1A kinase, 5.08.

Consider `Cc1coc(NC(=O)c2n[nH]c3cc(F)c(-c4cnn(C5CCN(C)CC5)c4)cc23)n1` [Compound 138, 6-Fluoro-N-(4-methyloxazol-2-yl)-5-(1-(1-methylpiperidin-4-yl)-1H-pyrazol-4-yl)-1H-indazole-3-carboxamide], for which the pEC50 is 6.36 in test [1]; 5.31 in test [2]; 6.90 in test [3]; 6.98 in test [4]; 5.56 in the test on IL-6. Further, the pIC50 on GSK3β kinase is 6.71; at DYRK1A kinase it was 8.22.

In the case of `Cn1cc(-c2ccc3[nH]nc(C(=O)Nc4cnn(C5CCNCC5)c4)c3c2)cn1` [Compound 140, 5-(1-Methyl-1H-pyrazol-4-yl)-N-(1-(piperidin-4-yl)-1H-pyrazol-4-yl)-1H-indazole-3-carboxamide], the pEC50 in test [1] is 6.52; in test [2] it was less than 4.00; in test [3] it was 6.15; in test [4] it was 5.59; with IL-6, 5.90. Further, the “percent in parentheses under EC50 >100” value in test [2] is listed as “(12.6%)”. The pIC50 at GSK3β kinase is 8.30; on DYRK1A kinase it was 8.70.

In the case of `CN1CCC(n2cc(NC(=O)c3n[nH]c4ccc(-c5cnn(C)c5)cc34)cn2)CC1` [Compound 141, 5-(1-Methyl-1H-pyrazol-4-yl)-N-(1-(1-methylpiperidin-4-yl)-1H-pyrazol-4-yl)-1H-indazole-3-carboxamide], the pEC50 in test [1] is 6.99; in test [2] it was 6.03; in test [3], 7.10; in test [4], 7.19; with IL-6 it was 6.42. The pIC50 was 8.40 at GSK3β kinase and 9.00 at DYRK1A kinase.

Take `CN1CCC(n2cc(-c3ccc4[nH]nc(C(=O)Nc5cnn(C)c5)c4c3)cn2)CC1` [Compound 142, N-(1-Methyl-1H-pyrazol-4-yl)-5-(1-(1-methylpiperidin-4-yl)-1H-pyrazol-4-yl)-1H-indazole-3-carboxamide]: the pEC50 was 6.94 in test [1]; less than 4.00 in test [2]; 6.89 in test [3]; 6.94 in test [4]; 5.96 with IL-6. Moreover, in test [2], the “percent in parentheses under EC50 >100” value is “(38.2%)”. Further, the pIC50 was 6.68 at GSK3β kinase and 8.10 on DYRK1A kinase.

With `Cc1cc(NC(=O)c2n[nH]c3ccc(-c4cnn(C5CCN(C)CC5)c4)cc23)sn1` [Compound 143, N-(3-Methylisothiazol-5-yl)-5-(1-(1-methylpiperidin-4-yl)-1H-pyrazol-4-yl)-1H-indazole-3-carboxamide], the pEC50 in test [1] is 6.68; in test [2], less than 4.00; in test [3], 7.05; in test [4], 7.22; with IL-6 it was 5.85. For the same compound, the “percent in parentheses under EC50 >100” value in test [2] is on record as “(23.0%)”. Further, the pIC50 at GSK3β kinase was 7.28; at DYRK1A kinase, 8.30.

As to `Cc1cnc(NC(=O)c2n[nH]c3ccc(-c4cnn(C5CCN(C)CC5)c4)cc23)s1` [Compound 144, 5-(1-(1-Methylpiperidin-4-yl)-1H-pyrazol-4-yl)-N-(5-methylthiazol-2-yl)-1H-indazole-3-carboxamide], the pEC50 was 5.66 in test [1]; less than 4.00 in test [2]; less than 5.00 in test [3]; 5.89 in test [4]; less than 5.00 in the test on IL-6. Also, the “percent in parentheses under EC50 >100” value in test [2] is listed as “(27.4%)”. Also, the pIC50 at GSK3β kinase is 5.19; on DYRK1A kinase, 8.10. Further, the inhibition at 10 µM with IL-6 came out at 49%.

With `CC(C)CN1CC[C@H](NC(=O)c2n[nH]c3ccc(-c4cn[nH]c4)cc23)[C@@H](F)C1` [Compound 145, N-((3 S,4S)-3-Fluoro-1-isobutylpiperidin-4-yl)-5-(1H-pyrazol-4-yl)-1H-indazole-3-carboxamide], the negative-log EC50 (pEC50) in test [1] is 7.00; in test [2] it was 6.06; in test [3] it was 6.46; in test [4] it was 6.43; in the test with IL-6, 5.94. Besides, the pIC50 at GSK3β kinase is 7.39; on DYRK1A kinase it was 7.43.

For `CN1CCC(CNC(=O)c2n[nH]c3ccc(-c4cnn(C)c4)cc23)CC1` [Compound 147, 5-(1-Methyl-1H-pyrazol-4-yl)-N-((1-methylpiperidin-4-yl)methyl)-1H-indazole-3-carboxamide], the pEC50 is 6.14 in test [1]; 5.58 in test [2]; 5.41 in test [3]; 5.17 in test [4]; 5.97 with IL-6. In addition, the pIC50 on GSK3β kinase is 7.82; at DYRK1A kinase, 7.59.

Regarding `Cc1ncc(-c2ccc3[nH]nc(C(=O)NC4CCN(c5ccc(F)cc5)CC4)c3c2)n1C` [Compound 148, 5-(1,2-Dimethyl-1H-imidazol-5-yl)-N-(1-(4-fluorophenyl)piperidin-4-yl)-1H-indazole-3-carboxamide], the pEC50 in test [1] is 5.33; in test [2], 5.51; in test [3], 5.35; in test [4], 5.10; in the test with IL-6 it was less than 5.00. The figures for the pIC50 on GSK3β kinase and on DYRK1A kinase were 7.24 and 7.31, respectively. The inhibition at 10 µM in the test on IL-6 was found to be 24.2%.

Take `CN1CCN(c2cccc(NC(=O)c3n[nH]c4cc(F)c(-c5cnn(C)c5)cc34)c2)CC1` [Compound 149, 6-Fluoro-5-(1-methyl-1H-pyrazol-4-yl)-N-(3-(4-methylpiperazin-1-yl)phenyl)-1H-indazole-3-carboxamide]: the pEC50 in test [1] is less than 5.00; in test [2], less than 4.00; in test [3], 6.66; in test [4], 6.48; in the test on IL-6 it was less than 5.00. In addition, in test [2], the “percent in parentheses under EC50 >100” value is “(36.0%)”. For the same compound, the pIC50 on GSK3β kinase is 7.31; at DYRK1A kinase it was 9.00. In addition, the inhibition at 10 µM in the test with IL-6 amounted to 44.7%.

On to `Cn1cc(-c2cc3c(C(=O)Nc4cccc(OC5CCNCC5)c4)n[nH]c3cc2F)cn1` [Compound 150, 6-Fluoro-5-(1-methyl-1H-pyrazol-4-yl)-N-(3-(piperidin-4-yloxy)phenyl)-1H-indazole-3-carboxamide], for which the negative-log EC50 (pEC50) was 6.50 in test [1]; less than 4.00 in test [2]; 6.61 in test [3]; 6.67 in test [4]; 5.45 in the test with IL-6. The “percent in parentheses under EC50 >100” value in test [2] is listed as “(17.4%)”. For the same compound, the pIC50 is 7.28 on GSK3β kinase and 8.40 at DYRK1A kinase.

In the case of `CN1CCC(Oc2cccc(NC(=O)c3n[nH]c4cc(F)c(-c5cnn(C)c5)cc34)c2)CC1` [Compound 151, 6-Fluoro-5-(1-methyl-1H-pyrazol-4-yl)-N-(3-((1-methylpiperidin-4-yl)oxy)phenyl)-1H-indazole-3-carboxamide], the negative-log EC50 (pEC50) in test [1] is less than 5.00; in test [2], less than 4.00; in test [3] it was 6.95; in test [4], 6.59; in the test with IL-6, 5.13. Moreover, the “percent in parentheses under EC50 >100” value in test [2] is on record as “(3.5%)”. The pIC50 at GSK3β kinase was 7.10; at DYRK1A kinase, 8.30.

Source of the values: patent publication US10934297B2, “5-heteroaryl substituted indazole-3-carboxamides and preparation and use thereof” (Samumed, LLC, priority 2018, dated 2021).
